Read-outs that look alike come from different tables or passages of the source.
Tests used:
VEGFR-2 = conditions: cited from earlier work
VEGFR-2 tyrosine kinase = target: T1, VEGFR-2 tyrosine kinase (Homo sapiens, UniProt P35968); assay: In vitro VEGFR-2 tyrosine kinase assay (BPS Bioscience); assay type: biochemical; conditions: for IC50: 10 μM ATP/0.2 mg/ml poly-Glu-Tyr; for inhibition at 10 µM: read-out: VEGFR-2 % inhibition, 10 μM concentration
T1 construct: purchased BPS Bioscience 40301
Description: The VEGFR tyrosine kinase assays were performed at BPS Bioscience (www.bpsbioscience.com). All the synthesised compounds representing the six series were evaluated for their ability to inhibit VEGFR-2 tyrosine kinase at single dose of 10 µM.
The VEGFR tyrosine kinase activity at single dose concentration of 10 μM was carried out by BPS Bioscience (www.bpsbioscience.com). VEGFR (BPS#40301) served as the enzyme source and Poly (Glu, Tyr) sodium salt, (4:1, Glu:Tyr) (Sigma#P7244) served as the standardized substrate & Kinase-Glo Plus Luminescence kinase assay kit (Promega#V3772). The IC50 determination was carried out where quality control testing is routinely performed on each of the targets to insure compliance to acceptable standards. ^33P-ATP was purchased from Perkin Elmer and ADP-Glo^TM was purchased from Promega. All other materials were of standard laboratory grade.
The VEGFR tyrosine kinase activity was performed using Kinase-Glo Plus luminescence kinase assay kit (Promega). It measures kinase activity by quantitating the amount of ATP remaining in solution following a kinase reaction. The luminescent signal from the assay is correlated with the amount of ATP present and is inversely correlated with the amount of kinase activity. The compounds were diluted to 100 μM in 10% DMSO and […] of the dilution was added to a […] reaction so that the final concentration of DMSO is 1% in all of reactions. All of the enzymatic reactions were conducted at 30 °C for 40 min. The 50 μl reaction mixture contains […], pH 7.4, […], 0.1 mg/ml BSA, 0.2 mg/ml Poly (Glu, Tyr) substrate, 10 μM ATP and VEGFR. After the enzymatic reaction, […] of Kinase-GloPlus Luminescence kinase assay solution (Promega) was added to each reaction and incubate the plate for 5 min at room temperature. Luminescence signal was measured using a BioTek Synergy 2 microplate reader. The protein kinase assays used to determine IC50 value were performed using ADP-GloTM assay kit from Promega which measures the generation of ADP by the protein kinase. Generation of ADP by the protein kinase reaction leads to an increase in luminescence signal in the presence of ADP-GloTM assay kit. The assay was started by incubating the reaction mixture in a 96-well plate at 30 °C for 30 min. After the 30 min incubation period, the assay was terminated by the addition of […] of ADP-GloTM Reagent (Promega). The 96 well plate was shaken and then incubated for 40 min at ambient temperature. […] of Kinase detection reagent was added, the 96-well reaction plate was then read using the ADP-Glo Luminescences Protocol on a GloMax plate reader (Promega: Catalog #E7031). Blank control was set up that included all the assay components except the addition of appropriate substrate (replace with equal volume of kinase assay buffer). The corrected activity for each protein kinase target was determined by removing the blank control value.
VEGFR activity assays were performed in duplicate at each concentration. The luminescence data were analyzed using the computer software, Graphpad Prism. The difference between luminescence intensities in the absence of VEGFR (Lut) and in the presence of VEGFR (Luc) was defined as 100% activity (Lut - Luc). […] IC50 determination for inhibitor against VEGFR was estimated by generating a graph of log inhibitor vs normalized response with variable using the Prism software.

HUVEC = assay: In vitro HUVEC anti-proliferative assay (alamarBlue); assay type: cell-based, human; conditions: HUVEC proliferation, single dose 10 µM, 72 hours; for inhibition at 10 µM: Homo sapiens, read-out: % Cell inhibition
Description: The assay was performed at single dose concentration of 10 µM, where HUVEC umbilical vein endothelial cells, human (Life Technologies # C-003-5C) served as the cells’ source, in Medium 200 (Life Technologies # M-200-500), with large vessel endothelial supplement (LVES) (Life Technologies # A14608-01) and Pen-step (Hyclone # SV30010). AlamarBlue (Life Technologies # DAL1025) was used as the fluorescent reagent.
HUVEC cells were cultured in Medium 200 with 2% LVES and 1% Pen-strep. To perform the proliferation assay, HUVEC cells were seeded at 5000 cells/ 50µl /well in a 96-well black clear-bottom tissue culture plate. Cells were incubated at 37°C and 5% CO2 overnight to allow them to recover and reattach.
Next day cells were treated with test compounds for 72 hours. After treatment, cell proliferation was measured by Fluorescent quantitation of alamarBlue reagent. The alamarBlue assay incorporates a fluorometric/colorimetric growth indicator based on detection of metabolic activity. Specifically, resazurin, the active ingredient in the alamarBlue reagent, is blue in color and virtually non-fluorescent. Upon entering cells, resazurin is reduced to resorufin, a compound that is red in color and highly fluorescent. Continued cell growth maintains a reduced environment, therefore increasing the overall fluorescence and color of the media surrounding cells. […] To perform the alamarBlue assay, 10 µl of alamarBlue reagent was added to each well and the plate was incubated at 37°C for an additional 2 hours. Fluorescence intensity was measured at an excitation of 530 nm and an emission of 590 nm using a BioTek Synergy^TM 2 microplate reader.
Cell proliferation assays were performed in triplicate at each concentration. The fluorescent intensity data were analyzed using the computer software, Graphpad Prism. In the absence of the compound, the fluorescent intensity (Ft) in each data set was defined as 100%. In the absence of cells, the fluorescent intensity (Fb) in each data set was defined as 0%. The percent cell in the presence of each compound was calculated according to the following equation: %cell = (F-Fb)/(Ft-Fb), where F= the fluorescent intensity in the presence of the compound, Fb= the fluorescent intensity in the absence of cells, and Ft = the fluorescent intensity in the absence of the compound.

HCT-116 = assay: In vitro cytotoxic activity, SRB assay; assay type: cell-based; conditions: Homo sapiens; HCT-116, 48h
Description: (§1) In addition, compounds (12a, 12b, 12c, 16b, 16c and 17b) were evaluated against a third cell line (HepG-2) These first two cell lines were selected based on the sensitivity of the previously NCI-tested derivatives towards them amongst the 60 NCI panel. The growth inhibition is expressed as the median growth inhibitory concentration (IC50) which corresponds to the concentration required for 50% inhibition of cell viability and are provided in (Table S6 in supplementary material).
(§2) 5,000 cells in fresh medium were seeded in 96-well microlitre plates and left to attach for 24h. Cells were incubated with the tested compounds at concentration range from 0,1,2.5,5,10 µg/ml and incubation was continued for48h. After 48h treatment,the cells were fixed with 50µl cold 50% trichloroacetic acid (TCA )for 1h at 4 °C. Wells were then washed 5 times with water and stained for 30 min at room temperature with 50µl of 0.4%SRB dissolved in 1% acetic acid. The wells were then washed 4 times with 1% acetic acid. The plates were air dried and the dye was solubilized with 100µl/well of 10mM tris base (pH 10.5) for 5min on a shaker (Orbital Shaker OS 20,Boeco,Germany) at 1600 rpm. The optical density (O.D.)of each well was measured spectrophotometrically at 564 nm with an enzyme linked immunosorbent assay( ELIZA) micraplate reader (Tecan Sunrise,Austria).The mean back ground absorbance was subtracted automatically and mean values for each drug concentration was calculated.
(§3) The percentage of cell survival was calculated as follows:
(§4) Survival fraction =O.D.(treated cells)/O.D.(control cells)
(§5) The IC50 value (the concentration required to produce 50% inhibition of cell growth) was calculated using sigmodial dose response curve-fitting models (GraphPad,Prizm software incorporated). Each concentration was repeated 3 times.

HepG-2 = assay: In vitro cytotoxic activity, SRB assay; assay type: cell-based; conditions: Homo sapiens, HepG2; HepG-2, 48h
Description: as §1, §2, §3, §4, §5

MCF-7 = assay: In vitro cytotoxic activity, SRB assay; assay type: cell-based; conditions: Homo sapiens, MCF7; MCF-7, 48h
Description: as §1, §2, §3, §4, §5

VEGFR-3 = tested on: VEGFR-3; design: method as in PMID 24565910; conditions: cited from earlier work

T1 sequence (P35968 20-1356): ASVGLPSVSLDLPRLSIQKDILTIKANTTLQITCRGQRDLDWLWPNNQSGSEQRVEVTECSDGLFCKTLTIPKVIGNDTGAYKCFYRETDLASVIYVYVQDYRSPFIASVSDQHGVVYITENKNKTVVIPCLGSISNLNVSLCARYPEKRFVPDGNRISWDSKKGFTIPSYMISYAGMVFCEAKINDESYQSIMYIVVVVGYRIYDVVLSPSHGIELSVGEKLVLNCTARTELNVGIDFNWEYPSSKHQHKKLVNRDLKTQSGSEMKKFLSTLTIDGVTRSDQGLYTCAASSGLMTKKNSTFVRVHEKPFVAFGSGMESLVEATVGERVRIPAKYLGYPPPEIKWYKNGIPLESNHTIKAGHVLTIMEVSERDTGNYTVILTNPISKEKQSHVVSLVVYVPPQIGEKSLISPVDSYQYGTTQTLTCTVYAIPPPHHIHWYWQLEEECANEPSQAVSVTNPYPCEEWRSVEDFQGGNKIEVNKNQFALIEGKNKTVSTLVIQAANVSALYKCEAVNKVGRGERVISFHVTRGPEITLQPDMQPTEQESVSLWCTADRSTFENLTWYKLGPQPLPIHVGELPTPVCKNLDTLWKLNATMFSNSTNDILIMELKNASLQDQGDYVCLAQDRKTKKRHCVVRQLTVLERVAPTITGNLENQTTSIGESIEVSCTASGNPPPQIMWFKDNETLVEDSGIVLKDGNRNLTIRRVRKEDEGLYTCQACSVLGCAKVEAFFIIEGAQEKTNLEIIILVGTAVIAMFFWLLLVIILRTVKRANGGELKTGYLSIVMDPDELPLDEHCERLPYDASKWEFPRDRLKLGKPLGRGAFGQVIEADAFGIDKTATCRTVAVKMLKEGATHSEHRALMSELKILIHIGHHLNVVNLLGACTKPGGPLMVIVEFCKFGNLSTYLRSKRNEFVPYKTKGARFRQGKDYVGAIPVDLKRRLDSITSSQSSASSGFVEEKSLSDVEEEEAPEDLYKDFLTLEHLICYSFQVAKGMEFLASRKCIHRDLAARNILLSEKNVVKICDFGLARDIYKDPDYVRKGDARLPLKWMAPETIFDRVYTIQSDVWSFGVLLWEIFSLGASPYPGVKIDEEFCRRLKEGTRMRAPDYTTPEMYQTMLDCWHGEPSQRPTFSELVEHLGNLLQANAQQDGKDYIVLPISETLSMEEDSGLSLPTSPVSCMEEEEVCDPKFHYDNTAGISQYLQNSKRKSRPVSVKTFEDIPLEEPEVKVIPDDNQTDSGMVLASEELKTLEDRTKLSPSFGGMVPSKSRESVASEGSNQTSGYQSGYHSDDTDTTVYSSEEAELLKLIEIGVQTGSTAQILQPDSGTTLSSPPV

Compound | IC50 (VEGFR-2; Figure 1, known VEGFR-2 kinase inhibitors, read-out: IC50) | IC50 (VEGFR-2 tyrosine kinase) | inhibition at 10 µM (VEGFR-2 tyrosine kinase) | % Cell growth (HUVEC) | inhibition at 10 µM (HUVEC) | IC50 (HCT-116) | IC50 (HepG-2) | IC50 (MCF-7) | melting point | IC50 (VEGFR-2; read-out: IC50 VEGFR-2) | IC50 (VEGFR-3)
c1ccc(Cc2cnc(N3CCN(c4ncnc5ccccc45)CC3)nc2)cc1 [(VI)] | 0.0034 µM | – | – | – | – | – | – | – | – | – | –
O=C(Nc1ccc(Cl)cc1)Nc1ccc(Nc2nnc(Cl)c3ccccc23)cc1 [Compound 12b, 1–(4-Chlorophenyl)-3–(4-(4-chlorophthalazin-1-ylamino)phenyl)urea] | – | 4.4 µM | 70% | 20.17% | 79.8% | 174 µM | 174 µM | 155 µM | 236 to 238 °C | – | –
O=C(Nc1ccc(Nc2nnc(Cl)c3ccccc23)cc1)Nc1ccc(Cl)c(C(F)(F)F)c1 [Compound 12c, 1–(4-Chloro-3-(trifluoromethyl)phenyl)-3–(4-(4-chlorophthalazin-1-ylamino)phenyl)-urea] | – | 2.7 µM | 78% | 27.42% | 72.6% | 724 µM | > 1000 µM | > 1000 µM | 187 to 189 °C | – | –
CNC(=O)c1cc(COc2nnc(Nc3ccc(Cl)cc3)c3ccoc23)ccn1 [Telatinib (V), telatinib] | – | – | – | – | – | – | – | – | – | 0.006 µM | 0.004 µM

From PMC6691788, “Design and synthesis of phthalazine-based compounds as potent anticancer agents with potential antiangiogenic activity via VEGFR-2 inhibition” (Journal of Enzyme Inhibition and Medicinal Chemistry, 2019)
